The record followed here is patent US8729091B2, “4-phenoxy-nicotinamide or 4-phenoxy-pyrimidine-5-carboxamide compounds” (Hoffmann-La Roche Inc., priority 2010, dated 2014).

This experiment addresses T1, human GPBAR1 receptor (Homo sapiens, UniProt Q8TDU6).
T1 construct: expressed in transfected cells
T1 sequence (Q8TDU6 1-330): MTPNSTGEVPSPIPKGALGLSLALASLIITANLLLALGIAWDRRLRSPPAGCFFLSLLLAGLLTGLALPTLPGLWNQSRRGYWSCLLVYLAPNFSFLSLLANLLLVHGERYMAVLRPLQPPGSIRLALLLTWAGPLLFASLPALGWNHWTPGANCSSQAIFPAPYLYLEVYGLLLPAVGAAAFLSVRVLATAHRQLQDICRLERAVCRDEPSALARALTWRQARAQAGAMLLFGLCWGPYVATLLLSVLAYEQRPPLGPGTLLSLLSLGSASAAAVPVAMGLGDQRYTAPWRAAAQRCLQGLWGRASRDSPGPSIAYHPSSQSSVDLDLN
In words: functional cAMP assay in CHO-dhfr(minus) cells expressing human GPBAR1 receptors. It counts as cell-based. The conditions noted are these: cAMP increase (TR-FRET) in CHO-dhfr(minus) cells expressing human GPBAR1; compounds incubated 30 min at 30° C. The gist of the method: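 Agonist cAMP read-out: stable GPBAR1 CHO-dhfr− clone, 30 min compound exposure at 30° C following 30 min IBMX (1 mM) preincubation in Krebs Ringer bicarbonate. Time-resolved energy-transfer detection gives EC50; parental CHO cells serve as counter-screen.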
Usually EC50 stands for the concentration needed to bring the measured effect to its halfway point. A low value points to greater potency. The compound `CCOC(=O)COc1cc(Cl)c(Oc2ccncc2C(=O)N2CCN(C3CC3)c3ccccc32)cc1Cl` [Example 58, {2,5-Dichloro-4-[3-(4-cyclopropyl-3,4-dihydro-2H-quinoxaline-1-carbonyl)-pyridin-4-yloxy]-phenoxy}-acetic acid ethyl ester] had a 50% effective concentration (EC50) of 30 nM.

The compound `O=C(O)COc1cc(Cl)c(Oc2ccncc2C(=O)N2CCN(C3CC3)c3ccccc32)cc1Cl` [Example 59, {2,5-Dichloro-4-[3-(4-cyclopropyl-3,4-dihydro-2H-quinoxaline-1-carbonyl)-pyridin-4-yloxy]-phenoxy}-acetic acid] yielded an EC50 of 500 nM.

Compound `CCOC(=O)C(C)(C)Oc1cc(Cl)c(Oc2ccncc2C(=O)N2CCN(C3CC3)c3ccccc32)cc1Cl` [Example 60, 2-{2,5-Dichloro-4-[3-(4-cyclopropyl-3,4-dihydro-2H-quinoxaline-1-carbonyl)-pyridin-4-yloxy]-phenoxy}-2-methyl-propionic acid ethyl ester] had an EC50 of 200 nM.

As for `CC(C)(Oc1cc(Cl)c(Oc2ccncc2C(=O)N2CCN(C3CC3)c3ccccc32)cc1Cl)C(=O)O` [Example 61, 2-{2,5-Dichloro-4-[3-(4-cyclopropyl-3,4-dihydro-2H-quinoxaline-1-carbonyl)-pyridin-4-yloxy]-phenoxy}-2-methyl-propionic acid], the EC50 is 400 nM.

`O=C(c1cnccc1Oc1cc(Cl)c(OCCO)cc1Cl)N1CCN(C2CC2)c2ccccc21` [Example 62, (4-Cyclopropyl-3,4-dihydro-2H-quinoxalin-1-yl)-{4-[2,5-dichloro-4-(2-hydroxy-ethoxy)-phenoxy]-pyridin-3-yl}-methanone]: the EC50 turned out to be 12 nM.

Compound `Cc1cc(Oc2cc(Cl)ccc2Cl)c(C(=O)N2CCN(C3CC3)c3ccccc32)cn1` [Example 63, (4-Cyclopropyl-3,4-dihydro-2H-quinoxalin-1-yl)-[4-(2,5-dichloro-phenoxy)-6-methyl-pyridin-3-yl]-methanone] displayed an EC50 of 1 nM.

`Cc1cc(Oc2cc(Cl)c(Br)cc2Cl)c(C(=O)N2CCN(C3CC3)c3ccccc32)cn1` [Example 64, [4-(4-Bromo-2,5-dichloro-phenoxy)-6-methyl-pyridin-3-yl]-(4-cyclopropyl-3,4-dihydro-2H-quinoxalin-1-yl)-methanone] had an EC50 of 20 nM.

For the compound `COC(=O)c1cc(Cl)c(Oc2cc(C)ncc2C(=O)N2CCN(C3CC3)c3ccccc32)cc1Cl` [Example 65, 2,5-Dichloro-4-[5-(4-cyclopropyl-3,4-dihydro-2H-quinoxaline-1-carbonyl)-2-methyl-pyridin-4-yloxy]-benzoic acid methyl ester], the EC50 is 20 nM.

On to `Cc1cc(Oc2cc(Cl)c(C(=O)O)cc2Cl)c(C(=O)N2CCN(C3CC3)c3ccccc32)cn1` [Example 66, 2,5-Dichloro-4-[5-(4-cyclopropyl-3,4-dihydro-2H-quinoxaline-1-carbonyl)-2-methyl-pyridin-4-yloxy]-benzoic acid], for which a half-maximal response (EC50) required 300 nM.

In the case of `CCOC(=O)CCNC(=O)c1cc(Cl)c(Oc2cc(C)ncc2C(=O)N2CCN(C3CC3)c3ccccc32)cc1Cl` [Example 67, 3-{2,5-Dichloro-4-[5-(4-cyclopropyl-3,4-dihydro-2H-quinoxaline-1-carbonyl)-2-methyl-pyridin-4-yloxy]-benzoylamino}-propionic acid ethyl ester], the EC50 is 20 nM.

On to `Cc1cc(Oc2cc(Cl)c(C(=O)NCCC(=O)O)cc2Cl)c(C(=O)N2CCN(C3CC3)c3ccccc32)cn1` [Example 68, 3-{2,5-Dichloro-4-[5-(4-cyclopropyl-3,4-dihydro-2H-quinoxaline-1-carbonyl)-2-methyl-pyridin-4-yloxy]-benzoylamino}-propionic acid], for which the EC50 was 200 nM.

`COC(=O)CNC(=O)c1cc(Cl)c(Oc2cc(C)ncc2C(=O)N2CCN(C3CC3)c3ccccc32)cc1Cl` [Example 69, {2,5-Dichloro-4-[5-(4-cyclopropyl-3,4-dihydro-2H-quinoxaline-1-carbonyl)-2-methyl-pyridin-4-yloxy]-benzoylamino}-acetic acid methyl ester]: the EC50 was 40 nM.
